Data on three molecules can be found in patent publication US5028626A, “Peptides with pharmaceutical activity” (Zambon Group S.p.A., priority 1988, dated 1991).

Assay [1] addresses T1, purified aminopeptidase obtained from hog kidney (leucineaminopeptidase) (Sus scrofa, UniProt P28839).
T1 construct: a purified aminopeptidase obtained from hog kidney; purchased Baehringer (so in the source); host or cells: hog kidney tissue
T1 sequence (P28839 1-519): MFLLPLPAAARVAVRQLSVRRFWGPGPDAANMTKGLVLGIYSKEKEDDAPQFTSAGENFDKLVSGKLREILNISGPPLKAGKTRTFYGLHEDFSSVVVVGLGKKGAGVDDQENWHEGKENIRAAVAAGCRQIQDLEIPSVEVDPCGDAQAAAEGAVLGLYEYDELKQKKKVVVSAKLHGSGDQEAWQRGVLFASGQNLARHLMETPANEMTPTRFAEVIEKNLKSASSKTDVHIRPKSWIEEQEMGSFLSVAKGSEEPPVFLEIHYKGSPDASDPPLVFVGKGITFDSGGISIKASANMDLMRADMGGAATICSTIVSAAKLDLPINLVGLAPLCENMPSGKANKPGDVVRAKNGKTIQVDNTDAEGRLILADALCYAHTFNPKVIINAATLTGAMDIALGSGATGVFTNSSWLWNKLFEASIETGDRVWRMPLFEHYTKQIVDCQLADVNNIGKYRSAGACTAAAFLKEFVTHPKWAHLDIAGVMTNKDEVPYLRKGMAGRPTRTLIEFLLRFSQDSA
As to the kind of experiment: Inhibitory effect on leucineaminopeptidase activity (L-leucinamide hydrolysis, absorbance at 238 nm). Type of assay: biochemical. The following applies: leucineamide 50 mM, tris-HCl pH 8.5, MgCl2 5 mM, 25° C., read-out: IC50 (concentration of the compound inducing a 50% decrease of the enzymatic activity). From the text:
(§1) The activity of the compounds of formula I has been evaluated as inhibitory effect on the activity of leucineaminopeptidase and as stimulating effect on the mitogenetic activity of mouse splenic lymphocytes.
The inhibitory effect of the tested compounds has been evaluated on a purified aminopeptidase obtained from hog kidney (Baehringer, 100U/mg).
The enzymatic activity was estimated spectrophotometrically by using L-leucinamide as substrate and by measuring the hydrolysis of the peptide bond as decrease of absorbance at 238 nm.
The enzyme was activated prior to assay at 37° C. for 2 hours, in the presence of MgCl2 1 mM and tris-HCl buffer 20 mM pH 8.5 in a total volume of 2.5 ml.
The enzymatic reaction was followed at 238 nm for at least 30 minutes at 25° C. in 2.5 ml of an incubation medium containing 50 μg of enzyme, leucineamide 50 mM, tris-HCl buffer 20 mM pH 8.5 and MgCl2 5 mM in the absence or in the presence of increasing concentrations of the tested compound.
The inhibitory effect was expressed as the concentration of the compound inducing a 50% decrease of the enzymatic activity (IC50, nmoles/1).

Assay [2] deals with mouse splenic lymphocytes. Briefly: Immunostimulating (mitogenetic) activity: 3H-timidine incorporation in mouse splenic lymphocytes. Type of assay: cell-based, mouse (C3H/H2). The following applies: compound at 1 μM; 48 h + 24 h incubation with 3H-TMD. How it is done: as §1
The immunostimulating activity has been evaluated as ability to stimulate the incorporation of ^3 H-timidine (^3 H-TMD) in a culture of mouse splenic lymphocytes.
The splenic cells were drawn form C3H/H2 mice (age: 6-8 weeks) and suspended in RPMI-1640 medium containing HEPES 20 mM and 10% bovine fetal serum (inactivated to heat) at the concentration of 5×10^6 cells/ml.
Cells were sowed of Microtest plates (Falcon 3072) in the absence and in the presence of different concentrations of the compounds of formula I in a volume of 0.2 ml of medium.
After an incubation period of 48 hours at 37° C. in humidified environment at 5% CO2 /O2, 0.5 microCi of ^3 H-TMD (specific activity 2 Ci/mmoles) were added and the incubation was protracted for further 24 hours.
Cells were collected by filtration (Tretertek Cell Harnester) and the incorporated radioactivity was measured by Packard TRI-CARB 4530 scintillator.
The mitogenetic effect was expressed as percentage increase in the incorporation of ^3 H-TMD in lymphocytes incubated with the compounds of formula I at the concentration of 1 μM with respect to the basal incorporation value.

Counter-ions that a name gives are not always drawn.

Regarding `CSc1ccc(C[C@@H](N)[C@H](O)C(=O)N[C@@H](CC(C)C)C(=O)O)cc1` [Example 11, N-[(2S,3R)-3-amino-2-hydroxy-4-(4-methylthiophenyl)-butanoyl]-L-leucine hydrobromide], in assay [1], the IC50 was determined as 11 nM.
Consider `CC(C)C[C@H](NC(=O)[C@H](O)[C@@H](N)Cc1ccc(S(C)(=O)=O)cc1)C(=O)O` [Example 4, N-[(2R,3S)-3-amino-2-hydroxy-4-(4-methylsulfonylphenyl)-butanoyl]-L-leucine], for which the “percentage increase in the incorporation of 3H-TMD in lymphocytes with respect to the basal incorporation value” in assay [2] worked out at 109%.
In the case of `CC(C)C[C@H](NC(=O)[C@@H](O)[C@H](N)Cc1ccc(S(C)(=O)=O)cc1)C(=O)O` [Example 3, N-[(2S,3R)-3-amino-2-hydroxy-4-(4-methylsulfonylphenyl)-butanoyl]-L-leucine], in assay [1], the IC50 was 10 nM.
